Measured values from ChEMBL document CHEMBL1201862, “PubChem BioAssay data set” (2004).
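These data come from cells grown in 96-well plates and exposed to compound for 48 hours at five concentrations. The concentration for 50% growth inhibition is given as GI50.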 The source made the active and inactive calls. Rule as the data show it: active = GI50 up to about 1.1 µM and inactive = higher. Peptide text beside a SMILES is read from it. * marks the point of attachment. Cbz = O=C(OCc1ccccc1)*; OBn = c1ccc(CO*)cc1

What was measured:
Experiment in all cases: growth of human tumour cells (NCI), 48 h
786-0 = tested on: 786-0
A549 = tested on: A549
BT-549 = tested on: BT-549
CAKI-1 = tested on: CAKI-1
COLO 205 = tested on: COLO 205
DU-145 = tested on: DU-145
HCC 2998 = tested on: HCC 2998
HCT-116 = tested on: HCT-116
HCT-15 = tested on: HCT-15
HOP-62 = tested on: HOP-62
HOP-92 = tested on: HOP-92
HT-29 = tested on: HT-29
Hs-578T = tested on: Hs-578T
IGROV-1 = tested on: IGROV-1
K562 = tested on: K562
KM12 = tested on: KM12
M14 = tested on: M14
MCF7 = tested on: MCF7
MDA-MB-231 = tested on: MDA-MB-231
MDA-MB-435 = tested on: MDA-MB-435
MDA-N = tested on: MDA-N
MOLT-4 = tested on: MOLT-4
Malme-3M = tested on: Malme-3M
NCI-H226 = tested on: NCI-H226
NCI-H23 = tested on: NCI-H23
NCI-H460 = tested on: NCI-H460
NCI-H522 = tested on: NCI-H522
NCI/ADR-RES = tested on: NCI/ADR-RES
OVCAR-3 = tested on: OVCAR-3
OVCAR-5 = tested on: OVCAR-5
OVCAR-8 = tested on: OVCAR-8
PC-3 = tested on: PC-3
RPMI-8226 = tested on: RPMI-8226
RXF 393 = tested on: RXF 393
SF-295 = tested on: SF-295
SF-539 = tested on: SF-539
SK-MEL-28 = tested on: SK-MEL-28
SK-MEL-2 = tested on: SK-MEL-2
SK-MEL-5 = tested on: SK-MEL-5
SK-OV-3 = tested on: SK-OV-3
SN12C = tested on: SN12C
SNB-19 = tested on: SNB-19
SNB-75 = tested on: SNB-75
SR = tested on: SR
SW-620 = tested on: SW-620
T47D = tested on: T47D
TK-10 = tested on: TK-10
U-251 = tested on: U-251
UACC-257 = tested on: UACC-257
UACC-62 = tested on: UACC-62
UO-31 = tested on: UO-31
ACHN = tested on: ACHN
CCRF-CEM = tested on: CCRF-CEM
EKVX = tested on: EKVX
OVCAR-4 = tested on: OVCAR-4
SF-268 = tested on: SF-268
A498 = tested on: A498
HL-60 = tested on: HL-60
LOX IMVI = tested on: LOX IMVI

Measured: GI50

COC(=O)CNC(=O)C(C)NC(=O)C(CC(=O)OCc1ccccc1)NC(=O)OCc1ccccc1 (stereo not drawn) (Cbz-Asp(OBn)-Ala-Gly-OMe; configuration not given here)
inactive: 786-0 > 100 µM | A549 39.5 µM | BT-549 37.8 µM | CAKI-1 79.8 µM | COLO 205 38.4 µM | DU-145 93.5 µM | HCC 2998 32.9 µM | HCT-116 30.6 µM | HOP-62 > 100 µM | HOP-92 66.5 µM | HT-29 65.5 µM | Hs-578T 43.9 µM | IGROV-1 > 100 µM | K562 27.5 µM | KM12 73.6 µM | M14 > 100 µM | MCF7 55.7 µM | MDA-MB-231 6.64 µM | MDA-MB-435 37.1 µM | MDA-N 53.6 µM | MOLT-4 13.7 µM | Malme-3M 45.2 µM | NCI-H226 36.1 µM | NCI-H23 36.6 µM | NCI-H460 50.7 µM | NCI-H522 34.3 µM | NCI/ADR-RES 67.1 µM | OVCAR-3 75 µM | OVCAR-5 39.4 µM | OVCAR-8 81.8 µM | PC-3 24 µM | RPMI-8226 39 µM | RXF 393 13.8 µM | SF-295 33.3 µM | SF-539 70.8 µM | SK-MEL-28 80.2 µM | SK-MEL-2 65.5 µM | SK-MEL-5 17 µM | SK-OV-3 > 100 µM | SN12C 91.6 µM | SNB-19 57.3 µM | SNB-75 72.1 µM | SR 35.5 µM | SW-620 35.7 µM | T47D 21.6 µM | TK-10 20.5 µM | U-251 47 µM | UACC-257 32.4 µM | UACC-62 58.3 µM | UO-31 19.1 µM
53.7 µM: HCT-15

CC(=O)Oc1ccc2c(c1)[nH]c1c3ccc(OC(C)=O)cc3oc(=O)c21
inactive: 786-0 48 µM | A549 56.9 µM | ACHN 27 µM | BT-549 23.9 µM | CAKI-1 52.4 µM | CCRF-CEM 19.3 µM | COLO 205 30.7 µM | DU-145 33.3 µM | EKVX 34.7 µM | HCC 2998 26.5 µM | HCT-116 23.3 µM | HOP-62 29.3 µM | HOP-92 61.1 µM | HT-29 34.2 µM | Hs-578T 31.3 µM | IGROV-1 39 µM | K562 26.5 µM | KM12 29.1 µM | M14 30.5 µM | MCF7 24.9 µM | MDA-MB-231 29.2 µM | MDA-MB-435 27.2 µM | MDA-N 33.3 µM | MOLT-4 14.2 µM | Malme-3M 32.8 µM | NCI-H226 21.8 µM | NCI-H23 36.1 µM | NCI-H460 22.6 µM | NCI-H522 25.5 µM | NCI/ADR-RES > 100 µM | OVCAR-3 24.8 µM | OVCAR-4 42.4 µM | OVCAR-5 > 100 µM | OVCAR-8 35.4 µM | PC-3 24.5 µM | RXF 393 26.7 µM | SF-268 26.9 µM | SF-295 44.1 µM | SF-539 29.9 µM | SK-MEL-28 38 µM | SK-MEL-5 15.3 µM | SK-OV-3 26 µM | SN12C 30.5 µM | SNB-19 23.9 µM | SNB-75 51.6 µM | SR 22.8 µM | SW-620 25 µM | T47D 20.4 µM | TK-10 49.9 µM | U-251 30.5 µM | UACC-257 43.2 µM | UACC-62 28.1 µM | UO-31 27.8 µM
37 µM: HCT-15

Nc1ccccc1CCN1CCN(CCCc2ccccc2)CC1
inactive: 786-0 31.7 µM | A498 74.5 µM | A549 70.8 µM | ACHN > 100 µM | BT-549 > 100 µM | CAKI-1 57.3 µM | CCRF-CEM 46.1 µM | COLO 205 21 µM | DU-145 > 100 µM | EKVX > 100 µM | HCC 2998 19.4 µM | HCT-116 34.7 µM | HL-60 17.8 µM | HOP-62 > 100 µM | HT-29 21.4 µM | Hs-578T > 100 µM | IGROV-1 50.6 µM | K562 27.8 µM | KM12 52.1 µM | LOX IMVI 34.4 µM | M14 17.3 µM | MCF7 46.8 µM | MDA-MB-231 61.1 µM | MDA-MB-435 72.4 µM | MDA-N 53 µM | MOLT-4 53.3 µM | Malme-3M 14.1 µM | NCI-H226 44.5 µM | NCI-H23 > 100 µM | NCI-H460 41.1 µM | NCI-H522 39.2 µM | NCI/ADR-RES 90.4 µM | OVCAR-3 > 100 µM | OVCAR-4 65.8 µM | OVCAR-5 > 100 µM | OVCAR-8 49.5 µM | PC-3 95.9 µM | RPMI-8226 27.8 µM | SF-268 99.5 µM | SF-295 45.4 µM | SF-539 39.2 µM | SK-MEL-28 97.7 µM | SK-MEL-2 > 100 µM | SK-MEL-5 17.9 µM | SK-OV-3 > 100 µM | SN12C 87.7 µM | SNB-19 > 100 µM | SR 25.7 µM | SW-620 95.3 µM | T47D 20.8 µM | TK-10 91.2 µM | U-251 > 100 µM | UACC-257 32.5 µM | UACC-62 84.3 µM | UO-31 27.3 µM
33.2 µM: HCT-15
